Test results as given in ChEMBL document CHEMBL5500383, “Recent advances and future directions on small molecule VEGFR inhibitors in oncological conditions” (Eur J Med Chem, 2024).
Each block holds one compound with its values, some of them ahead of it.

What was measured:
[1] = target: T1, Vascular endothelial growth factor receptor 2 (Homo sapiens, UniProt P35968); assay: Inhibition of VEGFR2 (unknown origin) by kinase profiling assay
[2] = target: T1, Vascular endothelial growth factor receptor 2; assay: Inhibition of human VEGFR2 by discoverX kinome scan assay
[3] = Cytotoxicity against HUVEC cells assessed as cell growth inhibition incubated for 72 hrs by MTT assay; type: toxicity, cell-based; conditions: human
[4] = target: Epidermal growth factor receptor (Homo sapiens, UniProt P00533); assay: Inhibition of EGFR (unknown origin) by DiscoverX KINOMEscan assay
[5] = test system: HepG2; assay: Antiproliferative activity against human HepG2 cells assessed as cell growth inhibition measured for 24 hrs by MTT assay; type: functional, cell-based; conditions: HepG2, 24 h
[6] = test system: A549; assay: Antiproliferative activity against human A549 cells assessed as cell growth inhibition measured for 24 hrs by MTT assay; type: functional, cell-based; conditions: A549, 24 h
[7] = test system: MCF7; assay: Antiproliferative activity against human MCF7 cells assessed as cell growth inhibition measured for 24 hrs by MTT assay; type: functional, cell-based; conditions: MCF7, 24 h
[8] = test system: HCT-116; assay: Cytotoxicity against human HCT-116 cells assessed as reduction in cell viability measured after 72 hrs by MTT assay; type: functional, cell-based; conditions: HCT-116, 72 h
[9] = test system: MCF7; assay: Cytotoxicity against human MCF7 cells assessed as reduction in cell viability measured after 72 hrs by MTT assay; type: functional, cell-based; conditions: MCF7, 72 h
[10] = Cytotoxicity against African green monkey Vero cells assessed as inhibition of cell growth incubated for 24 hrs by MTT assay; type: toxicity, cell-based, Chlorocebus sabaeus
[11] = target: T1, Vascular endothelial growth factor receptor 2; assay: Inhibition of human recombinant VEGFR2 using biotinylated poly-GluTyr (4:1) as susbtrate measured for 1 hr by ELISA method
[12] = test system: HepG2; assay: Cytotoxicity against human HepG2 cells assessed as reduction in cell viability measured after 72 hrs by MTT assay; type: functional, cell-based; conditions: HepG2, 72 h
[13] = target: T1, Vascular endothelial growth factor receptor 2; assay: Inhibition of VEGFR2 (unknown origin)
[14] = target: Serine/threonine-protein kinase B-raf (Homo sapiens, UniProt P15056); assay: Inhibition of wild type BRAF (unknown origin)
[15] = target: Serine/threonine-protein kinase B-raf (Homo sapiens, UniProt P15056, V600E); assay: Inhibition of BRAF V600E mutant (unknown origin)
[16] = test system: A498; assay: Cytotoxicity against human A498 cells assessed as reduction in cell viability incubated for 48 hrs by MTT assay; type: functional, cell-based; conditions: A498, 48 h
[17] = test system: CAKI-1; assay: Cytotoxicity against human CAKI-1 cells assessed as reduction in cell growth incubated for 48 hrs by MTT assay; type: functional, cell-based; conditions: CAKI-1, 48 h
[18] = target: Vascular endothelial growth factor receptor 3 (Homo sapiens, UniProt P35916); assay: Inhibition of VEGFR3 (unknown origin)
Vascular endothelial growth factor receptor 3, sequence (P35916 whole entry): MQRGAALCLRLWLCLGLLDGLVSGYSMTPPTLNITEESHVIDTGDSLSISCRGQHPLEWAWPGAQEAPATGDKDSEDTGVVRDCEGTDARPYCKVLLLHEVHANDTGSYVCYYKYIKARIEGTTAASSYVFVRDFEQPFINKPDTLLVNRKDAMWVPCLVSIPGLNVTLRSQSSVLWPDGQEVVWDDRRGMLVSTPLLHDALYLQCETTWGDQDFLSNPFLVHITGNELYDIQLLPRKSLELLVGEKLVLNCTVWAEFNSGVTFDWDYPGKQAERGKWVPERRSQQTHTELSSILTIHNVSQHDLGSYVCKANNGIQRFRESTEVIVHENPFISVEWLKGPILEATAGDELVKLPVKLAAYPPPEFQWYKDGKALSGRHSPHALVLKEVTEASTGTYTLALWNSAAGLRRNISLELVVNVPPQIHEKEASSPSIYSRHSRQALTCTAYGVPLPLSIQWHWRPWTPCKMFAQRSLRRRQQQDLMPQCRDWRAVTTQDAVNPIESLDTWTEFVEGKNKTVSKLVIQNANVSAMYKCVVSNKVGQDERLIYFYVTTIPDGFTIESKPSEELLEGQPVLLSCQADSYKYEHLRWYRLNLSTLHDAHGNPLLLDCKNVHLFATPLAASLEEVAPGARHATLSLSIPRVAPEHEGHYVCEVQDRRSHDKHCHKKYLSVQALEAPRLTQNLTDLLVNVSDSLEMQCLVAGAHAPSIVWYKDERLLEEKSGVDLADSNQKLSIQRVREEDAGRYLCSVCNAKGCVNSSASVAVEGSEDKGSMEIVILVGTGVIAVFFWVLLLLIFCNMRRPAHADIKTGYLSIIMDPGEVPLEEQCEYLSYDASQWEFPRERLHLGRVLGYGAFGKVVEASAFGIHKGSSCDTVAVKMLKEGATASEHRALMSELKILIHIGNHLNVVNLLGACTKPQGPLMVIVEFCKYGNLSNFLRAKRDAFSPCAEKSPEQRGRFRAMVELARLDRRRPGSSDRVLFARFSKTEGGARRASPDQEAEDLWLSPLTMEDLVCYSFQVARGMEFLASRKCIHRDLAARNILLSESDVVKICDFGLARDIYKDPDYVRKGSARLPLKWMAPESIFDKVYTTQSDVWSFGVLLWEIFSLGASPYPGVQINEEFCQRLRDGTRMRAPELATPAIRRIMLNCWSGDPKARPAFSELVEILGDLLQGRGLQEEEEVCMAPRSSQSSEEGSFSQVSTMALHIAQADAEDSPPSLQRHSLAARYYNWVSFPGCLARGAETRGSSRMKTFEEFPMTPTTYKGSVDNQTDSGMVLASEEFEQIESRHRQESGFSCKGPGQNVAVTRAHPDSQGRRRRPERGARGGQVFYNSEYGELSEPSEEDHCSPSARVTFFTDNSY

[19] = target: Histone deacetylase 1 (Homo sapiens, UniProt Q13547); assay: Inhibition of HDAC1 (unknown origin)
[20] = target: Vascular endothelial growth factor receptor 1 (Homo sapiens, UniProt P17948); assay: Inhibition of VEGFR1 (unknown origin)
Vascular endothelial growth factor receptor 1, sequence (P17948 whole entry): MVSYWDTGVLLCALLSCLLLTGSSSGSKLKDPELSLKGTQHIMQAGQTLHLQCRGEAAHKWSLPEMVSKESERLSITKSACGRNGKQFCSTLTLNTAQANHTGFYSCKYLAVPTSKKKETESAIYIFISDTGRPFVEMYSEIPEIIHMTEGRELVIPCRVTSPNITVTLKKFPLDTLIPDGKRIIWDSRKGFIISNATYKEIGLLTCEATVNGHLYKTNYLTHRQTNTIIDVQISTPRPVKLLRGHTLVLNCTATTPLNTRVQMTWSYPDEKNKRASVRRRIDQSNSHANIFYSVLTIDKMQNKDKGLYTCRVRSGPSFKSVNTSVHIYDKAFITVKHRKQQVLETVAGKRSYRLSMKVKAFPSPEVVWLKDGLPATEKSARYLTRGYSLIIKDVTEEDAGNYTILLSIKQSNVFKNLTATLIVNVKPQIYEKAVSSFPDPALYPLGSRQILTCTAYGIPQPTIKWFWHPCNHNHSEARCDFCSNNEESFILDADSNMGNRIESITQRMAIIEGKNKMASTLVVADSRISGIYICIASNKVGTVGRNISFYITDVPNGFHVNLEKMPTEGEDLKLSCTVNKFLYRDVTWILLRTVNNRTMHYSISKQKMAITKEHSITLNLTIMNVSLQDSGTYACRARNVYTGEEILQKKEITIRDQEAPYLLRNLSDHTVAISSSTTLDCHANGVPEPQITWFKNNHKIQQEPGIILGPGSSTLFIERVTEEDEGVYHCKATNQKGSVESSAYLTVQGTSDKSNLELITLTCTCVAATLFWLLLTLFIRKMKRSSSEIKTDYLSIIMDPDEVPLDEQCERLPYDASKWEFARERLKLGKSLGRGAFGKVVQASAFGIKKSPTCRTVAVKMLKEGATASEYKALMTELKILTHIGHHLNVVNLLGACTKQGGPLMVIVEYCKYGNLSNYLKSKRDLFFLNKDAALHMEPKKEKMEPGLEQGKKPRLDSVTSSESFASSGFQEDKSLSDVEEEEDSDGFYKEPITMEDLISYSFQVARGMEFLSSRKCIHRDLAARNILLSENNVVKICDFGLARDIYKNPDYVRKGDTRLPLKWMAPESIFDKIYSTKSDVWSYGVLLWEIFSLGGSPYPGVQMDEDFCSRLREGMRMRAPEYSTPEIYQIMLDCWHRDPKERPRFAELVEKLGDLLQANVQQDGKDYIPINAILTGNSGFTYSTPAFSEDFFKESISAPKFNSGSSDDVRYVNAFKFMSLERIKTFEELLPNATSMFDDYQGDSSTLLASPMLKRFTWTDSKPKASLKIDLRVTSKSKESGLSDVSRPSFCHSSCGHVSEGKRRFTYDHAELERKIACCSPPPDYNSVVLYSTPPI

[21] = target: Histone deacetylase 4 (Homo sapiens, UniProt P56524); assay: Inhibition of HDAC4 (unknown origin)
Histone deacetylase 4, sequence (P56524 whole entry): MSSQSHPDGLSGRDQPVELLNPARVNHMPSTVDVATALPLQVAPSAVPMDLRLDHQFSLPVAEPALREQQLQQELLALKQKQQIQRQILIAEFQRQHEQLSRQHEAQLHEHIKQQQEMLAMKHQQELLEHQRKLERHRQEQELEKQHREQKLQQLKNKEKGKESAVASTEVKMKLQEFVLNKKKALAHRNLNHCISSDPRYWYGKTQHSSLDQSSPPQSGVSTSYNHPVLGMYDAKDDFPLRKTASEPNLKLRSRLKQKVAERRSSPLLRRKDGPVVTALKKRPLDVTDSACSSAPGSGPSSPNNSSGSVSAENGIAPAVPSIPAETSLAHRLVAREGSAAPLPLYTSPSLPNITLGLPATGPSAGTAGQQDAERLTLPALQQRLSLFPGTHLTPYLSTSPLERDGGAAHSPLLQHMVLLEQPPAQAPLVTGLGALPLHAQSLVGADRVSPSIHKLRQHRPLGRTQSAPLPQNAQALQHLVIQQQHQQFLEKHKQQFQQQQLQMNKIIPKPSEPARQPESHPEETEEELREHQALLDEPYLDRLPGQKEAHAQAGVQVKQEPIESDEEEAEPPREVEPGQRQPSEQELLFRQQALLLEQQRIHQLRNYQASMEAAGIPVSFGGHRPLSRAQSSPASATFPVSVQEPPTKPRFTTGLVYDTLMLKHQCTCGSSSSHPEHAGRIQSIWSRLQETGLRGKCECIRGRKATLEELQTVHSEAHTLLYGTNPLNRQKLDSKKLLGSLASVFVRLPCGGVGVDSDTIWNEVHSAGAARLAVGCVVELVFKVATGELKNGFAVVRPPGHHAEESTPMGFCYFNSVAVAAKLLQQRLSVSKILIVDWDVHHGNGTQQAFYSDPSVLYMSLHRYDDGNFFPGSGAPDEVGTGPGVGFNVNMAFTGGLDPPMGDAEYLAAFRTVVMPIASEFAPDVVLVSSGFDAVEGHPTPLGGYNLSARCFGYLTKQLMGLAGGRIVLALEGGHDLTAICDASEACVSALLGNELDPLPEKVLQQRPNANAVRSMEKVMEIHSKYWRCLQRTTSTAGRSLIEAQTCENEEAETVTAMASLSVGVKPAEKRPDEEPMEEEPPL

[22] = target: T2, Protein deacetylase HDAC6 (Homo sapiens, UniProt Q9UBN7); assay: Inhibition of HDAC6 (unknown origin)
T2 sequence (Q9UBN7 whole entry): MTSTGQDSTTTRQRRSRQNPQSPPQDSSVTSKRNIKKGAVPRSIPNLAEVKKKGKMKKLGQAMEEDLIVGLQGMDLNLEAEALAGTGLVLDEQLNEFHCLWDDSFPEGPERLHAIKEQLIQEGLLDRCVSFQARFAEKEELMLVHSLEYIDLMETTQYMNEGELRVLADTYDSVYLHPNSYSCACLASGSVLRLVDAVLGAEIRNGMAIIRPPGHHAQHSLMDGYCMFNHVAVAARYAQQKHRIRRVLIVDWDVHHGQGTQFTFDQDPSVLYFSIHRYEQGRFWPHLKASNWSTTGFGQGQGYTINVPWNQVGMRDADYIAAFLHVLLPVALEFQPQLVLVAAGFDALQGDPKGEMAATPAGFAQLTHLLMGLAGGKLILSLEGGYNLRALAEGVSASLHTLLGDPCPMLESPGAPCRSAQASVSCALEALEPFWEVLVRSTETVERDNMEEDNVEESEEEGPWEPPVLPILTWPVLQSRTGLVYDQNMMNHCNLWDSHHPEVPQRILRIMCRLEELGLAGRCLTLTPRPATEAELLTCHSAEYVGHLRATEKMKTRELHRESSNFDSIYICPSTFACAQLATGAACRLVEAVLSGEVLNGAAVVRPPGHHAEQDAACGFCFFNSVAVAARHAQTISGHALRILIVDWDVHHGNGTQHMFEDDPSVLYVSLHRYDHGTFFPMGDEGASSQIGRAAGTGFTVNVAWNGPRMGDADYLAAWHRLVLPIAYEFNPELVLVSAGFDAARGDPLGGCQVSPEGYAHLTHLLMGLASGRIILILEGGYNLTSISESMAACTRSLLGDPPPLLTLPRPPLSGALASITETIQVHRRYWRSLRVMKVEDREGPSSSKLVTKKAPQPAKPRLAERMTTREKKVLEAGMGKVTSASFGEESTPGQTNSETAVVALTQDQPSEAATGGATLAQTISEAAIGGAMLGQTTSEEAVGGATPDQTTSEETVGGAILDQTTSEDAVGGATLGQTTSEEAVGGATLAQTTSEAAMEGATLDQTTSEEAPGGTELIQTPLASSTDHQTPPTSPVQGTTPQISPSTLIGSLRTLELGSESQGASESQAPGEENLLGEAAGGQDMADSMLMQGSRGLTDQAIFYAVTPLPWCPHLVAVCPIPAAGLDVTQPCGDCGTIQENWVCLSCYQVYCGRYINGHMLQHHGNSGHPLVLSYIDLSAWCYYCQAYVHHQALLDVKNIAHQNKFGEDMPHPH

[23] = target: T1, Vascular endothelial growth factor receptor 2; assay: Inhibition of VEGFR2 (unknown origin) by Z'-Lyte kinase assay
[24] = target: T1, Vascular endothelial growth factor receptor 2; assay: Inhibition of VEGFR2 (unknown origin) incubated for 1 hr in presence of ATP by ELISA method
[25] = target: T1, Vascular endothelial growth factor receptor 2; assay: Inhibition of human VEGFR2
[26] = Antiproliferative actiivty against human WI-38 cells assessed as reduction in cell viability by MTT assay; type: toxicity, cell-based
[27] = test system: HCT-116; assay: Antiproliferative actiivty against human HCT-116 cells assessed as reduction in cell viability by MTT assay; type: functional, cell-based
[28] = test system: MCF7; assay: Antiproliferative actiivty against human MCF7 cells assessed as reduction in cell viability by MTT assay; type: functional, cell-based
[29] = test system: HepG2; assay: Anticancer activity against human HepG2 cells assessed as reduction in cell growth incubated for 24 hrs by MTT assay; type: functional, cell-based; conditions: HepG2, 24 h
[30] = Acute toxicity in ip dosed Swiss albino mouse assessed as lethal dose; type: organism-based; conditions: in vivo, read-out: ALD50
[31] = test system: NCI-H1650; assay: Antiproliferative activity against human NCI-H1650 cells assessed as reduction in cell viability; type: functional, cell-based
[32] = test system: NCI-H1975; assay: Antiproliferative activity against human NCI-H1975 cells assessed as reduction in cell viability; type: functional, cell-based
[33] = test system: NCI-H441; assay: Antiproliferative activity against human NCI-H441 cells assessed as reduction in cell viability; type: functional, cell-based
[34] = test system: A549; assay: Antiproliferative activity against human A549 cells assessed as reduction in cell viability; type: functional, cell-based

T1 sequence (P35968 whole entry): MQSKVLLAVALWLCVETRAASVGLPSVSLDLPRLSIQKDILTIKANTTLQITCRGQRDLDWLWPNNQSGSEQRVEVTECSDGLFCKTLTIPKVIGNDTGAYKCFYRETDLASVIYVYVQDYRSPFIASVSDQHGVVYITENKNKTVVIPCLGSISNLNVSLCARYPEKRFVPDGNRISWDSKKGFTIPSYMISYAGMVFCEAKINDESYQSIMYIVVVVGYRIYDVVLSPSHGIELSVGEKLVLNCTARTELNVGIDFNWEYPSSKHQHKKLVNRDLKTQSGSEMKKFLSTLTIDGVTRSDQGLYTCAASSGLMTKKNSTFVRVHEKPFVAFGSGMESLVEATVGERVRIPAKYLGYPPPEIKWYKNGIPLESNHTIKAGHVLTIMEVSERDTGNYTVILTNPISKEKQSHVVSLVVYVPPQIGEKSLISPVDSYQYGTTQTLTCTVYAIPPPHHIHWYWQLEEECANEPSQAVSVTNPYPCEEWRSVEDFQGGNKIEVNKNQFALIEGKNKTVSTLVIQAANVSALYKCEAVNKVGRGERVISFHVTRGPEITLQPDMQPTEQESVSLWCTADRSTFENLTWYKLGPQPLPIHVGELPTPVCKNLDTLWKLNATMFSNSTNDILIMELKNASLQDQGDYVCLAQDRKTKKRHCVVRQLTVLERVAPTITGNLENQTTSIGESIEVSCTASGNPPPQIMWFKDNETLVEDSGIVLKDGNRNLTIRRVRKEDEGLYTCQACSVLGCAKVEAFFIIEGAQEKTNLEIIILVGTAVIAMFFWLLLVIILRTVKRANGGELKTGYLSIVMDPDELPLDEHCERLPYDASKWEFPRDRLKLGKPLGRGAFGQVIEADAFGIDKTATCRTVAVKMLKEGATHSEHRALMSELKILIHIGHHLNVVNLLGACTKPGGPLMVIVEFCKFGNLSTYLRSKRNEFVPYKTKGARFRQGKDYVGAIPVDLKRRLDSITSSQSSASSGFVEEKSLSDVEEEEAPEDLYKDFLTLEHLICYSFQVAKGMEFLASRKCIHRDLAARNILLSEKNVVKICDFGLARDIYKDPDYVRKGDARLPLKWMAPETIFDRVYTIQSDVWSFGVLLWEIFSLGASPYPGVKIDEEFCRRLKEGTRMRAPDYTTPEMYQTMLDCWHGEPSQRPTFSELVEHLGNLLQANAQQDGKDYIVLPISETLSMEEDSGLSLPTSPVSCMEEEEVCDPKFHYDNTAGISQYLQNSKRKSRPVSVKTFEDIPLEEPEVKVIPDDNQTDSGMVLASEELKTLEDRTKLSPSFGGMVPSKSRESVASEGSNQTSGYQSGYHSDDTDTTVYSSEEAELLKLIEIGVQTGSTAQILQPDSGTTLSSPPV

SMILES: CCOC(=O)/C(C#N)=C(\c1ccc(O)cc1)N1CC(=O)N(/N=C(\C)c2ccc(O)cc2O)C1=S
IC50 [4]: 11400 nM
IC50 [5]: 2440 nM
IC50 [6]: 1270 nM
IC50 [7]: 1630 nM

SMILES: Cc1cc(C)nc(NS(=O)(=O)c2ccc(NN=C3C(=O)NNC3=O)cc2)n1
IC50 [8]: 9660 nM
IC50 [9]: 10600 nM
IC50 at 24 h [10]: 39400 nM
IC50 [11]: 140 nM
IC50 [12]: 6430 nM

SMILES: O=C(CSc1nc2sc3c(c2c(=O)n1-c1ccc(Cl)cc1)CCCC3)NNC(=O)Nc1ccc(Cl)c(C(F)(F)F)c1
IC50 [13]: 49 nM
IC50 [14]: 50 nM
IC50 [15]: 63 nM

SMILES: COc1ccc(/C=N/n2c(SCC(=O)c3ccc(Cl)cc3)nnc2-c2cc3ccccc3[nH]2)cc1
IC50 [16]: 2200 nM
IC50 [17]: 890 nM

SMILES: Cc1cc(NS(=O)(=O)c2ccc(NN=C3C(=O)NNC3=O)cc2)no1
IC50 [8]: 7490 nM
IC50 [9]: 14300 nM
IC50 at 24 h [10]: 36300 nM
IC50 [11]: 150 nM
IC50 [12]: 8650 nM

SMILES: O=C1C(=O)N(CN2CCN(c3cc(=O)[nH]c4ccc(F)cc34)CC2)c2ccccc21
IC50 [23]: 63.8 nM

SMILES: CCNC(=S)NS(=O)(=O)c1ccc(NC(=O)CSc2cc3ccccc3c(=O)n2CC)cc1
IC50 [2]: 3100 nM

SMILES: O=C(c1ccccc1)n1cc(-c2nc3cc(Cl)ccc3[nH]c2=O)c(=O)[nH]1
IC50 [25]: 144 nM
IC50 [26]: 99200 nM
IC50 [27]: 4280 nM
IC50 [28]: 3570 nM

SMILES: CCOc1ccc(Nc2nnc3c4c(cccc24)NC(=S)N3Cc2ccccc2)cc1
IC50 [29]: 220 nM
LD50 [30]: > 800 mg/kg

The next lines start with results.

IC50 [1]: 38700 nM
IC50 [2]: 38700 nM
SMILES: COc1ccc(-c2cc3c(ccn4nc(-c5cccnc5)nc34)o2)cc1
IC50 at 72 h [3]: 17400 nM

IC50 [13]: 16 nM
IC50 [18]: 54 nM
IC50 [19]: 120 nM
IC50 [20]: 18 nM
IC50 [21]: > 10000 nM
IC50 [22]: 94 nM
SMILES: Cc1c2ccc(Nc3ccnc(Nc4ccc(NC(=O)CCCCCCC(=O)NO)cc4)n3)cc2nn1C

IC50 [13]: 32 nM
IC50 [18]: 66 nM
IC50 [19]: 240 nM
IC50 [20]: 41 nM
IC50 [21]: > 9170 nM
IC50 [22]: 63 nM
SMILES: Cc1c2ccc(Nc3ccnc(Nc4ccc(OCCCCCCC(=O)NO)cc4)n3)cc2nn1C

IC50 [24]: 199000 nM
SMILES: COc1cc(-c2nc(SCC(=O)Nc3ccc(C(C)=O)cc3)[nH]c(=O)c2C#N)cc(OC)c1OC

IC50 [1]: 58000 nM
IC50 [2]: 58000 nM
SMILES: COc1ccc(-c2nc3c4cc(-c5ccc(OC)cc5)oc4ccn3n2)cc1
IC50 at 72 h [3]: 22600 nM

IC50 [18]: 37 nM
IC50 [20]: 34 nM
IC50 [21]: > 10000 nM
IC50 [22]: 8960 nM
SMILES: CCCNNC(=O)c1ccc(Nc2nccc(N(C)c3ccc4c(C)n(C)nc4c3)n2)cc1

IC50 [31]: 3540 nM
IC50 [32]: 4410 nM
IC50 [33]: 3800 nM
IC50 [34]: 2920 nM
SMILES: COc1ccc(C2CC(c3ccc(Cl)cc3Cl)=NN2c2nc(C)c(C(=O)Nc3ccccc3)s2)cc1OC (centres undefined)
